≈ marks a conversion by molar mass, not a printed value. Where two headings read alike, the source gives them in different places.
What was measured:
Test in all cases: microbe, parasite or virus in culture
Design in all cases: species or system clinical Candida isolates; CLSI broth microdilution MIC, Sabouraud dextrose broth, 35 °C, visual complete growth inhibition
C. albicans 5 strains = system: T1, C. albicans 5 strains; settings: Candida albicans, 24 h
T1 construct: 5 clinical isolates
Description: (§1) The in vitro antifungal activities were determined by the broth microdilution method with sabouraud dextrose broth (BBL Microbiology Systems, Cockeysville, MD, USA), as recommended by the by the CLSI [43]. Ninety-six-well polystyrene microtitre plates containing serial dilutions of each compound were inoculated with each microorganism to yield the appropriate density (1–5 × 10^3 cells/mL) in a 100-μL final volume. Each plate included (i) fungi without the addition of the compound, (ii) just the medium, and (iii) just the compound. Topical and systemic antifungal reference drugs, clotrimazole and fluconazole, were inserted in the experiment. The plates were incubated for 24 h at 35 °C. […] Three independent experiments were performed in triplicate. The antimicrobial activity of these thiazolidinones was evaluated versus 24 clinical Gram-positive (S. aureus and S. epidermidis) and Gram-negative (E. coli and Enterobacter spp.) microorganisms. The antifungal activity of these derivatives was then tested versus 16 clinical fungal isolates belonging to the most relevant Candida spp. (C. albicans, C. tropicalis, C. parapsilosis, C. sakè, and C. glabrata). Prior to testing, each isolate was cultured on a selective medium to ensure purity and optimal growth, as previously reported. The isolates were routinely identified by the morphological aspects of colonies and by biochemical identification. The used clinical isolates were collected from specimens of patients at the ‘Azienda Policlinico Umberto I’ (Sapienza University of Rome) and were obtained from hematology/oncology and surgery departments, which also included an intensive care unit. In particular, the samples were isolated from the upper and lower respiratory tract, blood, and indwelling venous catheters; the isolates were identified by conventional methodologies. Participating subjects gave their written informed consent for this study.

C. tropicalis 3 strains = system: T2, C. tropicalis 3 strains; settings: Candida tropicalis, 24 h, read-out: Tested Fungi (MIC Values μg/mL) / C. tropicalis 3 strains
T2 construct: 3 clinical isolates
Description: as §1

C. glabrata 3 strains = system: T3, C. glabrata 3 strains; settings: Nakaseomyces glabratus, 24 h, read-out: Tested Fungi (MIC Values μg/mL) / C. glabrata 3 strains / 8–32
T3 construct: 3 clinical isolates
Description: as §1

[1] = system: T4, Candida sake C. sakè 3 strains; settings: Fermentozyma sake, 24 h; read-out: Tested Fungi (MIC Values μg/mL) / C. sakè 3 strains / 8–32
T4 construct: 3 clinical isolates
Description: as §1

[2] = system: T5, C. parapsilosis 2 strains; settings: Lodderomyces parapsilosis, 24 h, read-out: Tested Fungi (MIC Values μg/mL) / C. parapsilosis 2 strains
T5 construct: 2 clinical isolates
Description: as §1

Row | MIC (C. albicans 5 strains; read-out: Tested Fungi (MIC Values μg/mL) / C. albicans 5 strains / 32–128) | MIC (C. tropicalis 3 strains) | MIC (C. glabrata 3 strains) | MIC [1] | MIC [2] | MIC (C. albicans 5 strains; read-out: Tested Fungi (MIC Values μg/mL) / C. albicans 5 strains / 8–32 / 32–128) | SMILES
1 | 2 µg/mL (≈ 6.53 µM) | 2 µg/mL (≈ 6.53 µM) | 2 µg/mL (≈ 6.53 µM) | 2 µg/mL (≈ 6.53 µM) | 2 µg/mL (≈ 6.53 µM) |  | OC(Cn1cncn1)(Cn1cncn1)c1ccc(F)cc1F [Fluconazole]
2 |  | 2 µg/mL (≈ 5.8 µM) | 2 µg/mL (≈ 5.8 µM) | 2 µg/mL (≈ 5.8 µM) | 2 µg/mL (≈ 5.8 µM) | 2 µg/mL (≈ 5.8 µM) | Clc1ccccc1C(c1ccccc1)(c1ccccc1)n1ccnc1 [Clotrimazole]
